Entries after “also recorded” stand apart in the source; their conditions may differ.
Key:
[1] = tested on: luciferase RNA containing a UGA premature termination codon; assay: in vitro translation nonsense suppression assay in HeLa cell extract; format: biochemical, human; conditions: FIG. 4
Method: This Example describes a method of preparing a cell extract to perform in vitro translation reactions to monitor nonsense suppression or to produce proteins in vitro. This method is different from other methods used to prepare translation extracts for several reasons.
HeLa S3 cells were grown to a density of 10^6 cells/ml in DMEM; 5% CO2, 10% FBS, 1×P/S in a spinner flask. Cells were harvested by spinning at 1000×g. Cells were washed twice with phosphate buffered saline. The cell pellet sat on ice for 12 to 24 hours before proceeding. By letting the cells sit on ice, the activity of the extract is increased two-fold. The length of time on ice can range from 0 hours to 1 week. The cells were resuspended in 1.5 volumes (packed cell volume) of hypotonic buffer (10 mM HEPES (KOH) pH 7.4; 15 mM KCl; 1.5 mM Mg(OAc)2; 0.5 mM Pefabloc (Roche); 2 mM DTT). Cells were allowed to swell for 5 minutes on ice and dounce homogenized with 10 to 100 strokes using a tight-fitting pestle. The cells were spun for 10 minutes at 12000×g at 4° C. in a Sorvall SS-34 rotor. […]
Further, in the presence of the aminoglycoside gentamicin, nonsense suppression activity (as measured by the amount of luciferase activity produced from a luciferase RNA containing a UGA premature termination codon) is increased 2 to 3 fold above untreated extracts (see FIG. 4). […]

[2] = tested on: mRNA containing a UGA premature termination codon; assay: biochemical assay: rabbit reticulocyte lysate and nonsense-containing luciferase reporter mRNA
Text: (§1) Two assays were developed for use in high throughput screens to identify small molecules that promote nonsense suppression. Each assay utilized luciferase because it is a functional reporter gene assay (light is only produced if the protein is functional) and it is extremely sensitive (Light intensity is proportional to luciferase concentration in the nM range). The first assay was a cell-based luciferase reporter assay and the second was a biochemical assay consisting of rabbit reticulocyte lysate and a nonsense-containing luciferase reporter mRNA. In the cell-based assay, a luciferase reporter construct containing a UGA premature termination codon was stably transfected in 293T Human Embryonic Kidney cells. In the biochemical assay, mRNA containing a UGA premature termination codon was used as a reporter in an in vitro translation reaction using rabbit reticulocyte lysate supplemented with tRNA, hemin, creatine kinase, amino acids, KOAc, Mg(OAc)2, and creatine phosphate. […] Synthetic mRNA was prepared in vitro using the T7 promoter and the MegaScript in vitro transcription kit (Ambion).

[3] = tested on: UGA, UAA or UAG nonsense alleles of luciferase; assay: nonsense suppression in cells transiently transfected with luciferase nonsense alleles in each codon context; format: cell-based; conditions: 3 mg/ml, overnight
Method: Cells were transiently transfected with plasmids harboring the UGA, UAA or UAG nonsense alleles of luciferase in each codon context (UGAA, UGAC, UGAG, UGAU, UAGA, UAGC, UAGG, UAGU, UAAA, UAAC, UAAG, and UAAU) then the cells were treated overnight with Compound A, and gentamicin. The following day, the level of suppression was determined by measuring the amount of luminescence produced. The fold suppression above control cells treated with solvent was calculated and is numerically reported.

[4] = tested on: dystrophin; assay: dystrophin immunostaining in mdx mouse primary skeletal muscle cultures; format: cell-based; conditions: 200 μM
Method: FIG. 9. Immunohistochemistry of myotubes from primary cell culture from mdx muscle. The presence of dystrophin was detected by mAb to the COOH-terminus of dystrophin ([…]) followed by a rhodamine-conjugated anti-mouse IgG. […] Little dystrophin was detected in untreated mdx myotubes (right).
Mouse primary skeletal muscle cultures derived from 1-day old mdx mice were prepared as described previously (Barton-Davis et al., 1999, J Clin Invest. 104(4):375-381). Cells were cultured for 10 days in the presence of Compound A (20 μM). Culture medium was replaced every four days and the presence of dystrophin in myoblast cultures was detected by immunostaining as described previously (Barton-Davis et al., 1999, J Clin Invest. 104(4):375-381). A primary monoclonal antibody to the C-terminus of the dystrophin protein (F19A12) was used undiluted and rhodamine conjugated anti-mouse IgG was used as the secondary antibody. The F19A12 antibody will detect the full-length protein produced by suppression of the nonsense codon. Staining was viewed using a Leica DMR micropscope, digital camera, and associated imaging software at the University of Pennsylvania.

[5] = tested on: luciferase reporter construct containing a UGA premature termination codon in 293T Human Embryonic Kidney cells; assay: cell-based luciferase reporter assay, stable cell line
Text: as §1
Compound A and Compound B increase the level of nonsense suppression in the biochemical assay three to four fold over untreated extracts. […]

[6] = tested on: dystrophin; assay: dystrophin immunofluorescence of tibialis anterior muscle of mdx mice treated by Alzet osmotic pumps; format: in vivo, mouse; conditions: tissue exposure approximately 200 μM, osmotic pump
Method: FIG. 10A-10F. Immunohistochemistry of muscle cross-sections to view dystrophin. […] Muscle from untreated mdx mice (panel E) or from cross sections not treated with primary antibody (panel F) show only minimal staining.
As previously described (Barton-Davis et al., 1999, J Clin Invest. 104(4):375-381), compound was delivered by Alzet osmotic pumps implanted under the skin of anesthetized mice. Two doses of Compound A were administered. Gentamicin served as a positive control and pumps filled with solvent only served as the negative control. Pumps were loaded with appropriate compound such that the calculated doses to which tissue was exposed were 10 μM and 20 μM. The gentamicin concentration was calculated to achieve tissue exposure of approximately 200 μM. In the initial experiment, mice were treated for 14 days, after which animals were anesthetized with ketamine and exsanguinated. The tibialis anterior (TA) muscle of the experimental animals was then excised, frozen, and used for immunofluorescence analysis of dystrophin incorporation into striated muscle. The presence of dystrophin in TA muscles was detected by immunostaining, as described previously (Barton-Davis et al., 1999, J Clin Invest. 104(4):375-381; see mdx primary cells in Section 7.8 supra).

In the case of gentamicin, the “nonsense suppression activity (luciferase activity from luciferase RNA containing a UGA premature termination codon) above untreated extracts” value [1] is reported as 2 to 3 fold, the “luciferase activity on addition of compound” value [2] is reported as “increased luciferase activity” and the “fold suppression above control cells treated with solvent” value ([3]; context UAAA) is reported as 0.71 fold. For the same substance, the “fold suppression above control cells treated with solvent” value ([3]; context UAAC) was 2.32 fold, the “fold suppression above control cells treated with solvent” value ([3]; context UAAG) was 0.01 fold and the “fold suppression above control cells treated with solvent” value ([3]; context UAAU) was 0.92 fold. The “fold suppression above control cells treated with solvent” value ([3]; context UAGA) was 1.31 fold, the “fold suppression above control cells treated with solvent” value ([3]; context UAGC) was 2.16 fold and the “fold suppression above control cells treated with solvent” value ([3]; context UAGG) was 0.64 fold. The “fold suppression above control cells treated with solvent” value ([3]; context UAGU) was 0.54 fold, the “fold suppression above control cells treated with solvent” value ([3]; context UGAA) was 0.76 fold and the “fold suppression above control cells treated with solvent” value ([3]; context UGAC) was 1.91 fold. The “fold suppression above control cells treated with solvent” value ([3]; context UGAG) was 0.45 fold, the “fold suppression above control cells treated with solvent” value ([3]; context UGAU) was 6.74 fold and the “presence of full-length dystrophin in myotubes (immunostaining, C-terminus antibody)” value [4] was “full-length dystrophin protein is produced and localized to the muscle myotubes; also recorded: Dystrophin was present”. For the same substance, the “luciferase activity on addition of compound” value [5] was “increased luciferase activity” and the “dystrophin in TA muscle (immunostaining)” value [6] was “positive staining for dystrophin”.
